Measured values taken from article PMC9558223, “Staphylococcus aureus is able to generate resistance to novel lipoglycopeptide antibiotic gausemycin A” (Frontiers in Microbiology, 2022).

Assays:
[1] = system: Staphylococcus aureus 5812R; experiment: ID32 Staph strip, resistance (novobiocin); type: cell-based; conditions: colorimetric test
Procedure: (§1) The biochemical properties were assayed using the ID32 Staph strip (BioMerieux, France), which consists of a set of wells containing dried biochemical media for colorimetric tests.

[2] = system: Staphylococcus aureus FDA209 P; experiment: ID32 Staph strip, resistance (novobiocin); type: cell-based; conditions: colorimetric test
Procedure: as §1

S. aureus FDA209P [3] = experiment: Serial passaging in increasing concentrations of antimicrobials; type: cell-based, Staphylococcus aureus; conditions: for The highest concentration of antibiotic allowing growth: Mueller-Hinton II broth (CaCl2 50 mg/L), 37 °C, 24 h
Procedure: Gausemycin A-resistant variant was obtained by serial passaging as described previously (Pollard et al., [2012]). Isolated colonies of S. aureus FDA209P were inoculated into Mueller-Hinton II broth (CaCl2 50 mg/L) containing twofold dilutions of gausemycin A. The cultures were incubated at 37 °C with aeration for 24 h. After incubation, bacterial cells growing at the highest concentration of gausemycin A (below the MIC) were harvested and used for the next passage. The process was repeated for 20 passages. The dynamic of the developing resistance to gausemycin A was evaluated in comparison with daptomycin and ramoplanin. The experiments were performed in two independent series on separate days with three technical replicates each.

S. aureus 5812R [4] = experiment: microbe, parasite or virus in culture; type: cell-based, Staphylococcus aureus
Procedure: (§2) Minimal inhibitory concentration (MIC) was determined as previously described in Fuchs et al. ([2000]), following the Clinical and Laboratory Standards Institute (CLSI) guidelines for broth microdilution MIC assay. The bacteria were incubated in a 96-well microtiter plate (Eppendorf, Germany) containing 90 μL of inoculum prepared in growth media at 10^6 CFU/ml with 10 μL of twofold dilutions of the antibiotics. The results were evaluated after 24 h of cultivation at 37 °C. The bacterial growth was assessed by scanning the absorbance data at 600 nm obtained by spectrophotometer (Multiscan GO, Thermo Fisher Scientific, US).

S. aureus FDA209P [5] = experiment: microbe, parasite or virus in culture; type: cell-based, Staphylococcus aureus; conditions: broth microdilution (CLSI), 10^6 CFU/ml, 24 h, 37 °C, absorbance at 600 nm
Procedure: as §2

S. aureus 5812R [6] = experiment: Membrane integrity assay (SYTO 9 / propidium iodide); type: cell-based, Staphylococcus aureus; conditions: 10 mM HEPES, 1.25 mM Ca2+, 10^8 CFU/ml, end-point 10 min
Procedure: (§3) Membrane integrity was assessed using the fluorescent probes SYTO 9 and propidium iodide (PI) (LIVE/DEAD BacLight Bacterial Viability Kit, Molecular Probes, USA). The test strains were grown to the mid-log phase. The obtained cultures were centrifuged at 10,000 rpm for 10 min, the supernatant was discarded and the pellet was dispersed in 10 mM HEPES buffer supplemented with 1.25 mM Ca ^2+ to an optical density of 0.2 (OD 600) that corresponded to 10^8 CFU/ml. Bacterial cells in 50 μl were transferred to a 96-well microtiter plate (Eppendorf, US). SYTO 9 fluorescence kinetics was measured using Fluoroscan Ascent FL plate reader (Thermo Scientific, US) at 485 nm excitation and 535 nm of emission wavelengths as described earlier (Vasilchenko et al., [2020]). The assay was performed twice in three technical replicates.
(§4) Microscopy was performed using a Zeiss Axio Imager A2 fluorescent microscope (Carl Zeiss, Germany) equipped with filter sets useful for simultaneous viewing of SYTO 9 and PI stains.

S. aureus FDA209P [7] = experiment: as above; type: cell-based, Staphylococcus aureus; conditions: 10 mM HEPES, 1.25 mM Ca2+, 10^8 CFU/ml, end-point 10 min
Procedure: as §3, §4

S. aureus 5812R [8] = experiment: Resistance stability testing (passaging in drug-free medium); type: cell-based, Staphylococcus aureus; conditions: 17 passages in gausemycin A-free Muller-Hinton broth
Procedure: The overnight culture of S. aureus 5812R was sub-cultured in gausemycin A-free Muller-Hinton broth and incubated overnight at 37°C with shaking. The obtained culture was evaluated on susceptibility to gausemycin A in the MIC assay as described previously. Passaging in the drug-free medium was repeated 17 times. The experiments were performed in two independent series on separate days with three technical replicates each.

[9] = system: biofilm-embedded staphylococcal cells; conditions: ref Vasilchenko et al., 2020; cited from earlier work
From the text: These lipoglycopeptides were firstly described in 2016 (Lapchinskaya et al., [2016]), and consequently named gausemycins A and B (Tyurin et al., [2021]). Gausemycin A is a macrocyclic peptide containing 14 amino acids, where tyrosine is glycosylated with arabinose, which makes gausemycin A unique among natural peptide antibiotics (Tyurin et al., [2021]). The closest structurally related compounds are depsipeptides (daptomycin, taromycins, and cadazides) and cyclopeptides ( ...

## CO[C@@H]1[C@@H](OC(N)=O)[C@@H](O)[C@H](Oc2ccc3c(O)c(NC(=O)c4ccc(O)c(CC=C(C)C)c4)c(=O)oc3c2C)OC1(C)C [novobiocin]
[1]
  Resistance (Novobiocin): Positive
[2]
  Resistance (Novobiocin): Positive

## Gausemycin A
S. aureus FDA209P [3]; passage 1
  The highest concentration of antibiotic allowing growth: 2.5 µg/mL
S. aureus FDA209P [3]; passage 2
  The highest concentration of antibiotic allowing growth: 2.5 µg/mL
S. aureus FDA209P [3]; passage 3
  The highest concentration of antibiotic allowing growth: 5 µg/mL
S. aureus FDA209P [3]; passage 4
  The highest concentration of antibiotic allowing growth: 5 µg/mL
S. aureus FDA209P [3]; passage 5
  The highest concentration of antibiotic allowing growth: 5 µg/mL
S. aureus FDA209P [3]; passage 6
  The highest concentration of antibiotic allowing growth: 5 µg/mL
S. aureus FDA209P [3]; passage 7
  The highest concentration of antibiotic allowing growth: 5 µg/mL
S. aureus FDA209P [3]; passage 8
  The highest concentration of antibiotic allowing growth: 10 µg/mL
S. aureus FDA209P [3]; passage 9
  The highest concentration of antibiotic allowing growth: 20 µg/mL
S. aureus FDA209P [3]; passage 10
  The highest concentration of antibiotic allowing growth: 40 µg/mL
S. aureus FDA209P [3]; passage 11
  The highest concentration of antibiotic allowing growth: 40 µg/mL
S. aureus FDA209P [3]; passage 12
  The highest concentration of antibiotic allowing growth: 40 µg/mL
S. aureus FDA209P [3]; passage 13
  The highest concentration of antibiotic allowing growth: 50 µg/mL
S. aureus FDA209P [3]; passage 14
  The highest concentration of antibiotic allowing growth: 100 µg/mL
S. aureus FDA209P [3]; passage 15
  The highest concentration of antibiotic allowing growth: 100 µg/mL
S. aureus FDA209P [3]; passage 16
  The highest concentration of antibiotic allowing growth: 100 µg/mL
S. aureus FDA209P [3]; passage 17
  The highest concentration of antibiotic allowing growth: 150 µg/mL
S. aureus FDA209P [3]; passage 18
  The highest concentration of antibiotic allowing growth: 200 µg/mL
S. aureus FDA209P [3]; passage 19
  The highest concentration of antibiotic allowing growth: 200 µg/mL
S. aureus FDA209P [3]; passage 20
  The highest concentration of antibiotic allowing growth: >200 µg/mL
S. aureus FDA209P [3]; serial passages with sub-inhibitory concentrations
  Number of passages within which resistance was formed: ≤ 20 passages
S. aureus 5812R [4]; S. aureus 5812R, broth microdilution (CLSI), 10^6 CFU/ml, 24 h, 37 °C, absorbance at 600 nm
  MIC: >200 µg/mL
S. aureus 5812R [4]; ratio of MIC for 5812R and FDA209P
  Change of MIC / resistance of S. aureus 5812R compared to parent strain S. aureus FDA209P: 80 fold
S. aureus FDA209P [5]
  MIC: 2.5 µg/mL
S. aureus 5812R [6]
  Quenching of SYTO9 fluorescence: not achieved at all taken concentrations
S. aureus FDA209P [7]
  Concentration giving complete quenching of SYTO9 fluorescence: 50 µg/mL
S. aureus 5812R [8]
  Stability of resistance (MIC after passaging in drug-free medium): did not change the MIC value
[9]
  Inhibition of biofilm-embedded staphylococcal cells: able to inhibit
